# Values of other authors in US20220161013A1, “IMPROVED DELIVERY OF DRUG THERAPY TO THE CNS BY ULTRASOUND-BASED OPENING OF THE BLOOD-BRAIN BARRIER” (NORTHWESTERN UNIVERSITY, priority 2019, published 2022).
# How the values were obtained:
# p-Glycoprotein = p-Glycoprotein (Homo sapiens, UniProt P08183)
# [1] = system: orthotropic glioma xenograft model; details: with valspodar, nude mice
# [2] = local convection-enhanced delivery
# Sequence of p-Glycoprotein (P08183 whole entry): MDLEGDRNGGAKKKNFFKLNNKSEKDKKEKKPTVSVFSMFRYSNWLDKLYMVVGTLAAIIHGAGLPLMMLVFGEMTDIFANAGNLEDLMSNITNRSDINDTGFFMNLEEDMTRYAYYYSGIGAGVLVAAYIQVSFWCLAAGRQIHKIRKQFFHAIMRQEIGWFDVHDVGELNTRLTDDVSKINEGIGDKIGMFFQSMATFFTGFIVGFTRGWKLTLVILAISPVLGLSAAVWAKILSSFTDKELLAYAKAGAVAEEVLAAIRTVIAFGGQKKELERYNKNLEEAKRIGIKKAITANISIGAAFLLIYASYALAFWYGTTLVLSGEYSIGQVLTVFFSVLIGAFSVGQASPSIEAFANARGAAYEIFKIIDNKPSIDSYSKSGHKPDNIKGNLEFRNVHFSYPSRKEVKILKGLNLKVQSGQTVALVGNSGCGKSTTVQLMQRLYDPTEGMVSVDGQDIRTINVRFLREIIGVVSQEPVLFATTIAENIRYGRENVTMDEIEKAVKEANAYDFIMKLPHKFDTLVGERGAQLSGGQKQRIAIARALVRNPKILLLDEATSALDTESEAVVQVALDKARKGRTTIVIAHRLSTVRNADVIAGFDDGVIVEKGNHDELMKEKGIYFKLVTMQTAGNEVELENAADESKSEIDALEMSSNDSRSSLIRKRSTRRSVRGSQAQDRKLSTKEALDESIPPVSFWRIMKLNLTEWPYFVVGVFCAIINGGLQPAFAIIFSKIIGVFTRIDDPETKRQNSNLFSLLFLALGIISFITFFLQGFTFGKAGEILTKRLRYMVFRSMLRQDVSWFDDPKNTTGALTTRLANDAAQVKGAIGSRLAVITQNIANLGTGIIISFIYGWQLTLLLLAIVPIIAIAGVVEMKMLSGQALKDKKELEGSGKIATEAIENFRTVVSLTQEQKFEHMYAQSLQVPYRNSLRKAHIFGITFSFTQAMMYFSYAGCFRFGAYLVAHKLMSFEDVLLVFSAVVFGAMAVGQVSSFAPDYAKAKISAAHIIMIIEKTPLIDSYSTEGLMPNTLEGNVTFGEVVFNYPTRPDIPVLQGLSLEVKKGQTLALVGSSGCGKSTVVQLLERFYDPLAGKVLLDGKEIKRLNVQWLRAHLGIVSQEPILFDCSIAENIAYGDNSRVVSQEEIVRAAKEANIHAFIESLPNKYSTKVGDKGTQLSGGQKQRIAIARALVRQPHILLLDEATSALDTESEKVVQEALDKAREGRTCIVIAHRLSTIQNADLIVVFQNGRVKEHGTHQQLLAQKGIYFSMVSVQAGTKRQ
structure (smiles),measurement,setting,value
"CC(=O)O[C@H]1C(=O)[C@@]2(C)[C@H]([C@H](OC(=O)c3ccccc3)[C@]3(O)C[C@H](OC(=O)[C@H](O)[C@@H](NC(=O)c4ccccc4)c4ccccc4)C(C)=C1C3(C)C)[C@]1(OC(C)=O)CO[C@@H]1C[C@@H]2O [PTX, paclitaxel]",substrate for the multidrug resistance protein p-Glycoprotein,p-Glycoprotein,substrate
same,effectiveness when using p-Glycoprotein blocker valspodar,[1],significant increased effectiveness
same,response rate,[2],73%
